Results from patent US11078540B2, “Methods of diagnosing and treating cancer in patients having or developing resistance to a first cancer therapy” (DANA-FARBER CANCER INSTITUTE, INC., priority 2010, dated 2021).

Assays:
Format in all cases: cell-based, human
B-RAF^V600E cell lines = assay: Pharmacologic growth inhibition assays (WST1 viability, GI50, single-dose studies); conditions: Homo sapiens; OUMS-23, RPMI-7951 and M307 (COT-expressing B-RAF^V600E cell lines)
Method: Cultured cells were seeded into 96-well plates (3,000 cells per well) for all melanoma cell lines; 1,500 cells were seeded for A375. Twenty-four hours after seeding, serial dilutions of the relevant compound were prepared in DMSO added to cells, yielding final drug concentrations ranging from 100 μM to […], with the final volume of DMSO not exceeding 1%. Cells were incubated for 96 h following addition of drug. Cell viability was measured using the WST1 viability assay (Roche). Viability was calculated as a percentage of control (untreated cells) after background subtraction. A minimum of six replicates were performed for each cell line and drug combination. Data from growth-inhibition assays were modeled using a nonlinear regression curve fit with a sigmoid dose-response. […] Sigmoid-response curves that crossed the 50% inhibition point at or above 10 μM have GI50 values annotated as >10 μM. For single-dose studies, the identical protocol was followed, using a single dose of indicated drug (1 μM unless otherwise noted).

A375 cells [1] = assay: High throughput ORF screening: viability of A375 expressing the kinase ORF collection in 1 μM PLX4720 relative to untreated, normalized to MEK1DD (Cell Titer-Glo); conditions: Homo sapiens, A-375; A375 expressing kinase ORF collection, 1 μM PLX4720; read-out: relative viability, mean of all ORFs, normalized to MEK1DD
Method: A375 melanoma cells were plated in 384-well microtiter plates (500 cells per well). The following day, cells were spin-infected with the lentivirally-packaged kinase ORF library in the presence of 8 ug/ml polybrene. 48 hours post-infection, media was replaced with standard growth media (2 replicates), media containing 1 μM PLX4720 (2 replicates, 2 time points) or media containing 10 ug/ml blasticidin (2 replicates). After four days and 6 days, cell growth was assayed using Cell Titer-Glo (Promega) according to manufacturer instructions. The entire experiment was performed twice.
Raw luminescence values were imported into Microsoft Excel. Infection efficiency was determined by the percentage of duplicate-averaged raw luminescence in blasticidin selected cells relative to non-selected cells. ORFs with an infection efficiency of less than 0.70 were excluded from further analysis along with any ORF having a standard deviation of >15,000 raw luminescence units between duplicates. To identify ORFs whose expression affects proliferation, we compared the duplicate-averaged raw luminescence of individual ORFs against the average and standard deviation of all control-treated cells via the z-score, or standard score, below,
[formula] where x=average raw luminescence of a given ORF, μ=the mean raw luminescence of all ORFs and σ=the standard deviation of the raw luminescence of all wells. Any individual ORF with a z-score>+2 or <−2 was annotated as affecting proliferation and removed from final analysis. Differential proliferation was determined by the percentage of duplicate-averaged raw luminescence values in PLX4720 (1 μM) treated cells relative to untreated cells. […] MEK1^DD normalized differential proliferation for each individual ORF was averaged across two duplicate experiments, with two time points for each experiment (day 4 and day 6). A z-score was then generated, as described above for average MEK1^DD normalized differential proliferation. ORFs with a z-score of >2 were considered hits and were followed up in the secondary screen.

A375 cells [2] = assay: Secondary screen: PLX4720 GI50 in A375 expressing candidate resistance ORFs (WST-1); conditions: for GI50: Homo sapiens
Method: (§1) ORF-expressing lentivirus was added at a 1:10 dilution in the presence of 8 μg/ml polybrene, and centrifuged at 2250 RPM and 37° C. for 1 h. Following centrifugation, virus-containing media was changed to normal growth media and allowed to incubate for 18 h.

[3] = tested on: pERK1/2 (T202/Y204), pMEK1/2 (S217/221); assay: Immunoblots and immunoprecipitations of MAPK pathway proteins in treated cells
Method: Cells were washed twice with ice-cold PBS and lysed with 1% NP-40 buffer [150 mM NaCl, 50 mM Tris pH 7.5, 2 mM EDTA pH 8, 25 mM NaF and 1% NP-40] containing 2× protease inhibitors (Roche) and 1× Phosphatase Inhibitor Cocktails I and II (CalBioChem). Lysates were quantified (Bradford assay), normalized, reduced, denatured (95° C.) and resolved by SDS gel electrophoresis on 10% Tris/Glycine gels (Invitrogen). Protein was transferred to PVDF membranes and probed with primary antibodies recognizing pERK1/2 (T202/Y204), pMEK1/2 (S217/221), MEK1/2, MEK1, MEK2, C-RAF (rabbit host), pC-RAF (pS338) (Cell Signaling Technology; 1:1,000), V5-HRP (Invitrogen; (1:5,000), COT (1:500), B-RAF (1:2,000), Actin (1:1,000), Actin-HRP (1:1,000; Santa Cruz)), C-RAF (mouse host; 1:1,000; BD Transduction Labs), Vinculin (Sigma; 1:20,000), AXL (1:500; R&D Systems). After incubation with the appropriate secondary antibody (anti-rabbit, anti-mouse IgG, HRP-linked; 1:1,000 dilution, Cell Signaling Technology or anti-goat IgG, HRP-linked; 1:1,000 dilution; Santa Cruz), proteins were detected using chemiluminescence (Pierce). Immunoprecipitations were performed overnight at 4° C. in 1% NP-40 lysis buffer, as described above, at a concentration of 1 μg/μl total protein using an antibody recognizing C-RAF (1:50; Cell Signaling Technology). Antibody: antigen complexes were bound to Protein A agarose (25 μL, 50% slurry; Pierce) for 2 hrs. at 4° C. Beads were centrifuged and washed three times in lysis buffer and eluted and denatured (95° C.) in 2× reduced sample buffer (Invitrogen). Immunoblots were performed as above. Phospho-protein quantification was performed using NIH Image J.

SKMEL28 cells = assay: Secondary screen: PLX4720 GI50 in SKMEL28 expressing candidate resistance ORFs (WST-1); conditions: for GI50: Homo sapiens
Method: as §1

COT mRNA = assay: Quantitative RT-PCR of COT mRNA in cell lines; conditions: COT-expressing A375 cells, 1 μM PLX4720, 18 h
Method: mRNA was extracted from cell lines and fresh-frozen tumors using the RNeasy kit (Qiagen). Total mRNA was used for subsequent reverse transcription using the SuperScript III First-Strand Synthesis SuperMix (Invitrogen) for cell lines and unpaired tumor samples, and the SuperScript VILO cDNA synthesis kit (Invitrogen) for paired frozen tumor samples. 5 μl of the RT reaction was used for quantitative PCR using SYBR Green PCR Master Mix and gene-specific primers, in triplicate, using an ABI 7300 Real Time PCR System. Primers used for detection are as follows: […]

CCCS(=O)(=O)Nc1ccc(F)c(C(=O)c2c[nH]c3ncc(Cl)cc23)c1F [PLX4720]
GI50 (B-RAF^V600E cell lines): 8000 to 10000 nM | viability at 1 µM (A375 cells [1]): 44.3% | Fold Change GI50 (A375 cells [2]; A375, Mock control, relative to MEK1): 0.91 fold | Fold Change GI50 (A375 cells [2]; A375 expressing AXL ORF, relative to MEK1): 5.98 fold | Fold Change GI50 (A375 cells [2]; A375 expressing CRKL ORF, relative to MEK1): 59.8 fold | Fold Change GI50 (A375 cells [2]; A375 expressing ERBB2 ORF, relative to MEK1): 7.95 fold | Fold Change GI50 (A375 cells [2]; A375 expressing FGR ORF, relative to MEK1): 59.8 fold | Fold Change GI50 (A375 cells [2]; A375 expressing MAP3K8 ORF, relative to MEK1): 598 fold | Fold Change GI50 (A375 cells [2]; A375 expressing MEK1, (−) control): 1 fold | Fold Change GI50 (A375 cells [2]; A375 expressing MEK DD, (+) control, relative to MEK1): 28 fold | Fold Change GI50 (A375 cells [2]; A375 expressing PAK3 ORF, relative to MEK1): 2.95 fold | Fold Change GI50 (A375 cells [2]; A375 expressing PRKCE ORF, relative to MEK1): 26.4 fold | Fold Change GI50 (A375 cells [2]; A375 expressing PRKCH ORF, relative to MEK1): 24.7 fold | Fold Change GI50 (A375 cells [2]; A375 expressing RAF1 ORF, relative to MEK1): 598 fold | GI50 (A375 cells [2]; A-375, A375, Mock control): 153 nM | GI50 (A375 cells [2]; A-375, A375 expressing AXL ORF): 1000 nM | GI50 (A375 cells [2]; A-375, A375 expressing CRKL ORF): > 10000 nM | GI50 (A375 cells [2]; A-375, A375 expressing ERBB2 ORF): 1330 nM | GI50 (A375 cells [2]; A-375, A375 expressing FGR ORF): > 10000 nM | GI50 (A375 cells [2]; A-375, A375 expressing MAP3K8 ORF): > 100000 nM | GI50 (A375 cells [2]; A-375, A375 expressing MEK1, (−) control): 167 nM | GI50 (A375 cells [2]; A-375, A375 expressing MEK DD, (+) control): 4800 nM | GI50 (A375 cells [2]; A-375, A375 expressing PAK3 ORF): 493 nM | GI50 (A375 cells [2]; A-375, A375 expressing PRKCE ORF): 4410 nM | GI50 (A375 cells [2]; A-375, A375 expressing PRKCH ORF): 4140 nM | GI50 (A375 cells [2]; A-375, A375 expressing RAF1 ORF): ≥ 100000 nM | shift of the PLX4720 GI50 (A375 cells [2]; MAP3K8 (COT/Tpl2) and RAF1 (C-RAF) ORFs, in A375 and SKMEL28): 10-600 fold | endogenous C-RAF:B-RAF heterodimers ([3]; A375 cells, immunoprecipitated C-RAF, 1 μM PLX4720, 18 hr): measurable and inducible | COT protein ([3]; COT-expressing A375 cells): dose-dependent increase | ERK phosphorylation in the context of B-RAF inhibition ([3]; OUMS-23, RPMI-7951 and M307): sustained ERK phosphorylation | phosphorylation of ERK/MEK ([3]; OUMS-23, across a dose range of PLX4720): constitutive phosphorylation | GI50 (SKMEL28 cells; SK-MEL-28, SKMEL28, Mock control): 529 nM | GI50 (SKMEL28 cells; SK-MEL-28, SKMEL28 expressing AXL ORF): 1180 nM | GI50 (SKMEL28 cells; SK-MEL-28, SKMEL28 expressing CRKL ORF): 9700 nM | GI50 (SKMEL28 cells; SK-MEL-28, SKMEL28 expressing ERBB2 ORF): 1000 nM | GI50 (SKMEL28 cells; SK-MEL-28, SKMEL28 expressing FGR ORF): 5000 nM | GI50 (SKMEL28 cells; SK-MEL-28, SKMEL28 expressing MAP3K8 ORF): > 100000 nM | GI50 (SKMEL28 cells; SK-MEL-28, SKMEL28 expressing MEK1, (−) control): 1000 nM | GI50 (SKMEL28 cells; SK-MEL-28, SKMEL28 expressing MEK DD, (+) control): 8290 nM | GI50 (SKMEL28 cells; SK-MEL-28, SKMEL28 expressing PAK3 ORF): 904 nM | GI50 (SKMEL28 cells; SK-MEL-28, SKMEL28 expressing PRKCE ORF): 1910 nM | GI50 (SKMEL28 cells; SK-MEL-28, SKMEL28 expressing PRKCH ORF): 2260 nM | GI50 (SKMEL28 cells; SK-MEL-28, SKMEL28 expressing RAF1 ORF): ≥ 10000 nM | Fold Change GI50 (SKMEL28 cells; SKMEL28, Mock control, relative to MEK1): 1.89 fold | Fold Change GI50 (SKMEL28 cells; SKMEL28 expressing AXL ORF, relative to MEK1): 1.18 fold | Fold Change GI50 (SKMEL28 cells; SKMEL28 expressing CRKL ORF, relative to MEK1): 9.7 fold | Fold Change GI50 (SKMEL28 cells; SKMEL28 expressing ERBB2 ORF, relative to MEK1): 1 fold | Fold Change GI50 (SKMEL28 cells; SKMEL28 expressing FGR ORF, relative to MEK1): 5 fold | Fold Change GI50 (SKMEL28 cells; SKMEL28 expressing MAP3K8 ORF, relative to MEK1): ~100 fold | Fold Change GI50 (SKMEL28 cells; SKMEL28 expressing MEK1, (−) control): 1 fold | Fold Change GI50 (SKMEL28 cells; SKMEL28 expressing MEK DD, (+) control, relative to MEK1): 8.29 fold | Fold Change GI50 (SKMEL28 cells; SKMEL28 expressing PAK3 ORF, relative to MEK1): 0.9041 fold | Fold Change GI50 (SKMEL28 cells; SKMEL28 expressing PRKCE ORF, relative to MEK1): 1.91 fold | Fold Change GI50 (SKMEL28 cells; SKMEL28 expressing PRKCH ORF, relative to MEK1): 2.26 fold | Fold Change GI50 (SKMEL28 cells; SKMEL28 expressing RAF1 ORF, relative to MEK1): ≥10 fold | ectopic COT mRNA levels (COT mRNA): without affecting
